Data taken from a melting point compilation (Tetko et al.; mined from patent text by program, amines drawn as free bases though some values may be those of a salt).

Row | Structure (SMILES) | melting point [°C]
1 | COCc1cc(OCc2ccccc2)c2nc(C)n(C)c2c1 | 113
2 | O=C1CCCC2=C1C(c1ccncc1)C1=C(CCS1)N2 (stereo not given) | > 250
3 | COC1=CCC(N)(O)C=C1 (stereo not given) | 138 to 140
4 | Cn1c(-c2n[nH]c(=O)[nH]2)nc2ccccc21 | 293 to 296
5 | CC(=O)c1sccc1S(=O)(=O)N(C)c1cccc2cc(-c3nccs3)[nH]c12 | 156
6 | CCCCOc1cc(CCC(=O)O)n(Cc2ccc(Cl)cc2Cl)n1 | 123 to 124
7 | COc1cc(OC)nc(-n2ncn(N)c2=O)n1 | 238
8 | CCOC(=O)C(=Cc1cccc(OC)c1OC)N=[N+]=[N-] | < 50
9 | CC1=C(c2ccncc2)SC(O)C(=O)N1 (stereo not given) | 214
10 | CC1C(=O)Oc2cc(C3CCCCC3)ccc21 (stereo not given) | 87 to 89
11 | C#CC1(O)CCC2(C)C(CCC3C2CCC2(C)C(OC)CCC32)C1 (stereo not given) | 62 to 65
12 | COc1ccccc1N1CCN(CCCCN2CCN(c3cccc(Cl)c3)C2=O)CC1 | 87 to 89
13 | Cc1noc(NS(=O)(=O)c2ccccc2-c2ccc(C(F)(F)C(C)C)cc2)c1C | 52 to 58
14 | CC(C)(C)CN(NC(=O)c1ccccc1)C(=O)c1ccccc1 | 237 to 239
15 | O=C(NC1CCN(CCCOc2ccccc2C(=O)Nc2nnn[nH]2)CC1)c1ccccc1 | 259 to 260
16 | COc1cc2c(cc1OC)C(C)=[N+]([O-])C(c1ccco1)N2 (stereo not given) | 191 to 195
17 | c1cc(Cn2ccnc2)c2nccnc2c1 | 121
18 | O=C(Nc1ccc2c(c1)CS(=O)(=O)N2)C(=O)N1CCC(Cc2ccc(F)cc2)CC1 | 183 to 184
19 | CCNC1=NS(=O)(=O)c2cc(Cl)sc2N1 | 274 to 275
20 | CCOC(=O)c1c(N)c2cccnc2n(C)c1=O | 203 to 206

Row | Structure (SMILES) | melting point [°C]
21 | CC1(C)CCCC=C1c1ccc(C(=O)N2Cc3cccn3Cc3ccccc32)cc1 | 118
22 | CC(=O)c1cccc(N2CCN(CCCCOc3ccc4ccc(=O)[nH]c4n3)CC2)c1Cl | 108 to 110
23 | COC(=O)c1ccc(OC)cc1C(C)=O | 48 to 50
24 | COc1cc(CNC(=O)c2cc3c(=O)n(CC4CCCCC4)c(=O)n(C)c3s2)ccn1 | 167 to 210
25 | CC[C@H](Nn1c([C@H](C)OC)nnc1[C@H](C)OC)C(OC)OC | 67 to 68
26 | CC(=O)NCCNC1=NS(=O)(=O)c2cc(Cl)ccc2N1 | 295 to 297
27 | O=C(NCC12CC3CC(CC(C3)C1)C2)c1cc(-c2ccc(Cl)cc2C(=O)O)ccc1Cl | 207 to 210
28 | CC(=O)Nc1cccc(OCCCCC(=O)O)c1C=O | 119 to 121
29 | COc1cccc(OC)c1C1(O)C(=O)Nc2ccc(Cl)cc21 (stereo not given) | 182
30 | O=C1OC(CCCCN2CCN(c3ncccn3)CC2)CN1c1ccccc1 (stereo not given) | 94 to 96
31 | O=C(c1ccc([N+](=O)[O-])cc1)N1CCSC1=S | 166 to 167
32 | CC(=O)N1c2ccc(-c3ccc(CN(C)C)cc3)cc2C(Nc2ccccc2)CC1C (stereo not given) | 90
33 | CCCCCC(CC(=O)Nc1cc(C(N)=O)ccc1C(C)(C)C)c1ccc(C)cc1OC (stereo not given) | 175 to 177
34 | CCOC(=O)c1c(-c2cccc(Cl)c2)c2cc(C(O)c3nc(-c4ccccc4)cs3)ccc2[nH]c1=O (stereo not given) | 127
35 | CN(Cc1ccccc1)C1CCN(c2c(F)cc([N+](=O)[O-])c(F)c2CCl)C1 (stereo not given) | 94 to 98
36 | COc1ccc(C(=O)CCC(=O)O)cc1N | 136 to 137
37 | Cc1cccc(Nc2c([N+](=O)[O-])cc(C(=O)O)cc2S(N)(=O)=O)c1 | 256 to 259
38 | Cc1c(C(C)(C)C(=O)O)nc2ccc(NCCCN3CCC(OC(c4ccccc4)c4ccccc4)CC3)nn12 | 219 to 220
39 | O=C(CN1CCCC1)Nc1ccc(-c2cc(-c3c[nH]nc3-c3ccccn3)ccn2)cc1 | 188
40 | CCCCCCCNC(=O)CCCCSc1nc(-c2ccccc2)c(-c2ccccc2)[nH]1 | 104 to 106
